These compounds were tested against T1, human renal renin (Homo sapiens, UniProt P00797) (assay: inhibition of human renal renin in vitro, angiotensin I formed measured by radioimmunoassay). Details: human angiotensinogen substrate, 37 degrees C, pH 6.0.
T1 construct: human renal renin, free from acid proteolytic activity; from tissue; host or cells: human kidney (from the word 'renal')
T1 sequence (P00797 67-406): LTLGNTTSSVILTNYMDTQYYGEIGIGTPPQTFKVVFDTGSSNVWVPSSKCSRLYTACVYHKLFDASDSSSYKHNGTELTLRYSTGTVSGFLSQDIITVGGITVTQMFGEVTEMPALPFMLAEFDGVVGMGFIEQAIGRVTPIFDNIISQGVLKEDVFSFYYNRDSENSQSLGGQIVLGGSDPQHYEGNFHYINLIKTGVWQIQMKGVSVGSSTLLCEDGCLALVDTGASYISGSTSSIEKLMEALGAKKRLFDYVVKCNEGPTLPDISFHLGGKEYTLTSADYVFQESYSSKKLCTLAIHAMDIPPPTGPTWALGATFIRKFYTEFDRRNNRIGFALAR
Format: biochemical
Procedure: At the end of the incubation, the amount of angiotensin I formed is measured by radioimmunoassay and the molar concentration required to cause 50% inhibition, expressed as the IC50, is calculated.

Row | SMILES | IC50 [nM]
1 | O=C(N[C@@H](Cc1c[nH]cn1)C(=O)NCC(O)CO)c1[nH]c2ccccc2c1CCc1ccccc1 (some centres unmarked) [Example 130, [3-(2-Phenylethyl)indolyl-2-carbonyl]-His Amide of 3-Amino-1,2-propanediol] | 10000
2 | CCCC[C@@H](C(=O)N[C@@H](CC1CCCCC1)[C@@H](O)[C@@H](O)CC(C)C)N1CCc2c([nH]c3ccccc23)C1=O [Example 96] | 66
3 | CC(C)C[C@H](O)[C@H](O)[C@H](CC1CCCCC1)NC(=O)[C@H](Cc1c[nH]cn1)NC(=O)c1ccc2ccccc2c1 [Example 151, N-(2-Napthoyl)-His Amide of 2(S)-Amino-1-cyclohexyl-3(R),4(S)-dihydroxy-6-methylheptane] | 32
4 | COCOC[C@H](NC(=O)c1cc2ccccc2[nH]1)C(=O)N[C@@H](CC1CCCCC1)[C@@H](O)[C@@H](O)CC(C)C [Example 150, N-(Indolyl-2-carbonyl)-(O-methoxymethyl)Ser Amide of 2(S)-Amino-1-cyclohexyl-3(R),4(S)-dihydroxy-6-methylheptane] | 27
5 | CC(C)C[C@H](O)[C@H](O)[C@H](CC1CCCCC1)NC(=O)[C@H](Cc1c[nH]cn1)NC(=O)c1ccc2ccccc2n1 [Example 110, N-(Quinolinyl-2-carbonyl)-His Amide of 2(S)-Amino-1-cyclohexyl-3(R),4(S)-dihydroxy-6-methylheptane] | 8.7
6 | CCCCC(C(=O)N[C@@H](CC1CCCCC1)[C@@H](O)[C@@H](O)CC(C)C)N1Cc2c([nH]c3ccccc23)C1=O (stereo partly drawn) [Example 93, (1'RS,2"S,3"R,4"S)-2-[1-[N-(1-Cyclohexyl-3,4-dihydroxy-6-methyl-2-heptyl)carbamoyl]pentyl]-1,2,3,4-tetrahydropyrrolo[3,4-b]indol-3-one] | 44
7 | CCN1C[C@@H]([C@H](O)[C@H](CC2CCCCC2)NC(=O)[C@H](Cc2c[nH]cn2)NC(=O)c2ccc3ccccc3n2)OC1=O [Example 109, N-(Quinolinyl-2-carbonyl)-His Amide of (2'S,1'R,5S)-3-Ethyl-5-(1-hydroxy-2-amino-3-cyclohexylpropyl)oxazolidin-2-one] | 36
8 | CC(C)C[C@H](O)[C@H](O)[C@H](CC1CCCCC1)NC(=O)[C@H](CC(C)C)N1Cc2c([nH]c3ccccc23)C1=O [Example 70, (1'S,2"S,3"R,4"S)-2-[1-[N-(1-cyclohexyl-3,4-dihydroxy-6-methyl-2-heptyl)carbamoyl]-3-methylbutyl]-1,2,3,4-tetrahydropyrrolo[3,4-b]indol-3-one] | 100

Reference: patent US4994477A, “Heterocyclic renin inhibitors” (Abbott Laboratories, priority 1988, dated 1991)
